Read-outs that look alike come from different tables or passages of the source. Numbered stars: 1 amine (or outer) side, 2 acyl side, 3 side chain; on linkers, the order of the positions; unused ones are H or OH. Square brackets hold non-standard residues; d marks the D form. Side chains are listed from the residue outwards. Peptide text beside a SMILES is read from it. * marks the point of attachment. C18 diacid = O=C(O)CCCCCCCCCCCCCCCCC(=O)*; γGlu = O=C(O)[C@H](CCC(=O)[*:2])N[*:1]; αMeF = C[C@](N)(Cc1ccccc1)C(=O)O; αMeK = C[C@](N)(CCCCN)C(=O)O; αMeS = C[C@](N)(CO)C(=O)O; AEEA = NCCOCCOCC(=O)O; Aib = CC(C)(N)C(=O)O
Experiments:
Type in all cases: cell-based
[1] = molecular target: T1, human glucose-dependent insulinotropic peptide receptor (GIPR) (Homo sapiens, UniProt P48546); assay: cAMP assay, human GIPR cells; details: cAMP assay
T1 construct: expressed in transfected cells
T1 sequence (P48546 22-466): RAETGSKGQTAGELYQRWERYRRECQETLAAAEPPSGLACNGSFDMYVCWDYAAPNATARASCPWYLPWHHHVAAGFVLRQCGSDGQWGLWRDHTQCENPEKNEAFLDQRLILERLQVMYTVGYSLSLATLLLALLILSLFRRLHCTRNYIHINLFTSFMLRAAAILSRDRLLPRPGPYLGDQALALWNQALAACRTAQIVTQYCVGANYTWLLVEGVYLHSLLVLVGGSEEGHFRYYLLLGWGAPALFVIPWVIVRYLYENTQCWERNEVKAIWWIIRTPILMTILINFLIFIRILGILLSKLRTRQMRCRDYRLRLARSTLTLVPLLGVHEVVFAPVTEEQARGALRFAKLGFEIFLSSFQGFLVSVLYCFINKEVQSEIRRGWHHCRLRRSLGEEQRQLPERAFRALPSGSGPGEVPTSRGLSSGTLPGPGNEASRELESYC
Summary of the method: (§1)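 Peptide-stimulated cAMP measured by two-step HTRF after a 30 min room-temperature incubation with receptor-expressing cells (hGLP-1R, hGIPR at 1×10^5 cells/ml; hGCGR at 2×10^5 cells/ml). Duplicate dilutions; EC50 from 4-parameter logistic fit of % Delta F.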

[2] = molecular target: T2, human glucagon receptor (GCGR) (Homo sapiens, UniProt P47871); assay: cAMP assay, human GCGR cells; details: cAMP assay
T2 construct: expressed in transfected cells
Summary of the method: as §1

GLP-1R (INS1e assay) = molecular target: T3, GLP-1R (INS1e assay) (Rattus norvegicus, UniProt P32301); assay: INS1e assay, cAMP activity at GLP-1R; details: mono-lipidated peptides
T3 construct: endogenous in cells; host or cells: INS-1E cells
T3 sequence (P32301 22-463): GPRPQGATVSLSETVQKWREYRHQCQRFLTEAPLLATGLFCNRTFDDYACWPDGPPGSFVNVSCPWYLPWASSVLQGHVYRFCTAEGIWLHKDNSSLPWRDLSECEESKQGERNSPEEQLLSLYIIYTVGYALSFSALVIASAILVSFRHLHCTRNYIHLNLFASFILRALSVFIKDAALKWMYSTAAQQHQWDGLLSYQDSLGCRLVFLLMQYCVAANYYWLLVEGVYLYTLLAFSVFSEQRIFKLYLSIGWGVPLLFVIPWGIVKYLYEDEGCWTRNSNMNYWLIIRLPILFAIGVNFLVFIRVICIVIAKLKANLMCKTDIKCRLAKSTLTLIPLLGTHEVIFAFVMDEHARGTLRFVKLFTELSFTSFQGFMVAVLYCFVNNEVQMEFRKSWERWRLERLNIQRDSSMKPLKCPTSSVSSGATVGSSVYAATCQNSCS
Experimental: cAMP levels are measured using a commercially available cAMP dynamic 2 HTRF kit (Cisbio, Cat #62AM4PEJ), following the two step protocol as per manufacturer's recommendations. In brief; anti-cAMP cryptate (donor fluorophore) and cAMP-d2 (acceptor fluorophore) are made up separately by diluting each 1/20 in conjugate & lysis buffer provided in the kit. 5 μL anti-cAMP cryptate is added to wells of the assay plate, and 5 μL cAMP-d2 is added to wells except non-specific binding (NSB) wells, to which conjugate and lysis buffer are added. […] EC50 values of the synthetic peptides determined in cAMP assays are then determined.

[3] = first determination (n1), read-out: Primary assay EC50 GIP-R (n1)
[4] = second determination (n2), read-out: Primary assay EC50 GIP-R (n2)
[5] = first determination (n1), read-out: Primary assay EC50 Gluc-R (n1)
[6] = second determination (n2), read-out: Primary assay EC50 Gluc-R (n2)
[7] = mean of n1 and n2, read-out: INS1e assay EC50 Mean pM GLP-1R
[8] = replicate n1, read-out: INS1e assay EC50 GLP-1R n1
[9] = replicate n2, read-out: INS1e assay EC50 GLP-1R n2

T2 sequence (P47871 26-477): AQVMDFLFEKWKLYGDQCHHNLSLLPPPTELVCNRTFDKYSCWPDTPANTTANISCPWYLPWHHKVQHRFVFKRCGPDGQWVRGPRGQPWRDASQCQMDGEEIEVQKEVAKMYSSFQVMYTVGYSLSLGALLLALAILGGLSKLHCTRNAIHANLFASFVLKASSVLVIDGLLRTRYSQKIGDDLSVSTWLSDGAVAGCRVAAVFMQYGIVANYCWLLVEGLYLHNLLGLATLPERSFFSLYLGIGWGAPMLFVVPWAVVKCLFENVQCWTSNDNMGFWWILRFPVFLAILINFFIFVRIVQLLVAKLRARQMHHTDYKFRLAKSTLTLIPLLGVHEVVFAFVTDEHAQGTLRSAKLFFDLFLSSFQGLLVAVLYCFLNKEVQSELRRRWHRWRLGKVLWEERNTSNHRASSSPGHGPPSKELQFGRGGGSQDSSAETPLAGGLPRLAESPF

EC50 [1, 3] [nM]	EC50 [1, 4] [nM]	EC50 [2, 5] [nM]	EC50 [2, 6] [nM]	EC50 (GLP-1R (INS1e assay); [7]) [pM]	EC50 (GLP-1R (INS1e assay); [8]) [pM]	EC50 (GLP-1R (INS1e assay); [9]) [pM]	Compound
≥ 25	≥ 25	≥ 25	≥ 25	27400	31600	23100	CC[C@H](C)[C@H](NC(=O)[C@](C)(Cc1ccccc1)NC(=O)[C@H](CCC(=O)O)NC(=O)[C@](C)(CCCCN)NC(=O)[C@H](CCCCNC(=O)COCCOCCNC(=O)COCCOCCNC(=O)CC[C@H](NC(=O)CCCCCCCCCCCCCCCCC(=O)O)C(=O)O)NC(=O)[C@H](C)NC(=O)[C@H](CCC(=O)O)NC(=O)CNC(=O)[C@H](CCC(=O)O)NC(=O)[C@H](CC(C)C)NC(=O)[C@](C)(Cc1ccccc1)NC(=O)[C@H](CO)NC(=O)[C@](C)(CO)NC(=O)[C@@H](NC(=O)[C@H](CC(=O)O)NC(=O)[C@H](CO)NC(=O)[C@@H](NC(=O)[C@](C)(Cc1ccccc1)NC(=O)[C@H](CO)NC(=O)CNC(=O)[C@H](CCC(=O)O)NC(=O)C(C)(C)NC(=O)[C@@H](N)Cc1c[nH]cn1)[C@@H](C)O)C(C)C)C(=O)N[C@@H](C)C(=O)N[C@@](C)(Cc1ccccc1)C(=O)N[C@H](C(=O)N[C@H](C(=O)N[C@@](C)(CCCCN)C(=O)NCC(=O)NCC(N)=O)C(C)C)C(C)C [compound 110] (H-H[Aib]EGS[αMeF]TSDV[αMeS]S[αMeF]LEGEAK([AEEA-AEEA-γGlu-C18 diacid])[αMeK]E[αMeF]IA[αMeF]VV[αMeK]GG-NH2; N-terminus assumed)
≥ 26	≥ 26	≥ 26	≥ 26	6	2.67	8.37	CCCCCCCCCCCCCCCCCC(=O)NCCOCCOCC(=O)NCCOCCOCC(=O)NCCOCCOCC(=O)NCCCC[C@H](NC(=O)[C@H](C)NC(=O)[C@H](C)NC(=O)[C@H](CCC(=O)O)NC(=O)CNC(=O)[C@H](CCC(=O)O)NC(=O)[C@H](CC(C)C)NC(=O)[C@](C)(Cc1ccccc1)NC(=O)[C@H](CO)NC(=O)[C@](C)(CO)NC(=O)[C@@H](NC(=O)[C@H](CC(=O)O)NC(=O)[C@H](CO)NC(=O)[C@@H](NC(=O)[C@](C)(Cc1ccccc1)NC(=O)[C@H](CO)NC(=O)CNC(=O)[C@H](CCC(=O)O)NC(=O)C(C)(C)NC(=O)[C@@H](N)Cc1c[nH]cn1)[C@@H](C)O)C(C)C)C(=O)N[C@@H](CCC(=O)O)C(=O)N[C@@H](Cc1ccccc1)C(=O)N[C@H](C(=O)N[C@@H](C)C(=O)N[C@@](C)(Cc1ccccc1)C(=O)N[C@H](C(=O)N[C@H](C(=O)N[C@@](C)(CCCCN)C(=O)NCC(=O)NCC(N)=O)C(C)C)C(C)C)[C@@H](C)CC [compound 54]
≥ 26	≥ 25.6	≥ 26	≥ 25.6	6330	8350	4320	CC[C@H](C)[C@H](NC(=O)[C@](C)(Cc1ccccc1)NC(=O)[C@H](CCC(=O)O)NC(=O)[C@H](CCCCNC(=O)COCCOCCNC(=O)COCCOCCNC(=O)CC[C@H](NC(=O)CCCCCCCCCCCCCCC(=O)O)C(=O)O)NC(=O)[C@H](C)NC(=O)[C@H](C)NC(=O)[C@H](CCC(=O)O)NC(=O)CNC(=O)[C@H](CCC(=O)O)NC(=O)[C@H](CC(C)C)NC(=O)[C@](C)(Cc1ccccc1)NC(=O)[C@H](CO)NC(=O)[C@](C)(CO)NC(=O)[C@@H](NC(=O)[C@H](CC(=O)O)NC(=O)[C@H](CO)NC(=O)[C@@H](NC(=O)[C@](C)(Cc1ccccc1)NC(=O)[C@H](CO)NC(=O)CNC(=O)[C@H](CCC(=O)O)NC(=O)C(C)(C)NC(=O)[C@@H](N)Cc1c[nH]cn1)[C@@H](C)O)C(C)C)C(=O)N[C@@H](C)C(=O)N[C@@](C)(Cc1ccccc1)C(=O)N[C@H](C(=O)N[C@H](C(=O)N[C@@](C)(CCCCN)C(=O)NCC(=O)NCC(N)=O)C(C)C)C(C)C [compound 109]
